Converted amounts (≈) assume the structure as drawn.
Key:
A431 [1] = assay: Inhibition of cell growth by incorporation of [3H]-thymidine, A431; assay type: cell-based, human; conditions: Homo sapiens, A-431, read-out: IC50 A431
NHEK = assay: Inhibition of cell growth by incorporation of [3H]-thymidine, NHEK; assay type: cell-based, human; conditions: Homo sapiens, read-out: IC50 NHEK
HTB161 = assay: Inhibition of cancer cell growth as measured by cell number, HTB161; assay type: cell-based; conditions: Homo sapiens, 48 h, read-out: IC50 HTB161
A27805 = assay: Inhibition of cancer cell growth as measured by cell number, A27805; assay type: cell-based; conditions: Homo sapiens, 48 h, read-out: IC50 A27805
A2780DDP = assay: Inhibition of cancer cell growth as measured by cell number, A2780DDP; assay type: cell-based; conditions: Homo sapiens, 48 h, read-out: IC50 A2780DDP
MIP = assay: Inhibition of cancer cell growth as measured by cell number, MIP; assay type: cell-based; conditions: Homo sapiens; cell number, Sulforhodamine B, 48 hours exposure; Table 4; read-out: IC50 MIP
SW620 = assay: Inhibition of cancer cell growth as measured by cell number, SW620; assay type: cell-based, human; conditions: Homo sapiens, SW-620, 48 h, read-out: IC50 SW620, cell number, Sulforhodamine B, 48 hours exposure; Table 4;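 note: SW620 was included as a cell line with little or no EGFR or HER2/neu expression, in contrast to receptor-overexpressing lines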
Source text: (§1) The cell lines were chosen since they overexpressed epidermal growth factor receptor (EGFR) (i.e. A431) or HER2/neu (SKBR3), or had little to no expression of the these receptors (SW620, LOX, MCF7).

COLO205 = assay: Inhibition of cancer cell growth as measured by cell number, COLO205; assay type: cell-based; conditions: Homo sapiens, COLO 205, 48 h, read-out: IC50 COLO205
CX1 = assay: Inhibition of cancer cell growth as measured by cell number, CX1; assay type: cell-based; conditions: Homo sapiens, CX-1, 48 h, read-out: IC50 CX1
CACO2 = assay: Inhibition of cancer cell growth as measured by cell number, CACO2; assay type: cell-based; conditions: Homo sapiens, Caco-2, 48 h, read-out: IC50 CACO2
HCT15 = assay: Inhibition of cancer cell growth as measured by cell number, HCT15; assay type: cell-based; conditions: Homo sapiens, HCT-15, 48 h, read-out: IC50 HCT15
LS174T = assay: Inhibition of cancer cell growth as measured by cell number, LS174T; assay type: cell-based; conditions: Homo sapiens, 48 h, read-out: IC50 LS174T
SW948 = assay: Inhibition of cancer cell growth as measured by cell number, SW948; assay type: cell-based; conditions: Homo sapiens, SW948, 48 h, read-out: IC50 SW948
CCL228 = assay: Inhibition of cancer cell growth as measured by cell number, CCL228; assay type: cell-based; conditions: Homo sapiens, 48 h, read-out: IC50 CCL228
MCF7 = assay: Inhibition of cancer cell growth as measured by cell number, MCF7; assay type: cell-based, human; conditions: Homo sapiens, MCF7, 48 h, read-out: IC50 MCF7, cell number, Sulforhodamine B, 48 hours exposure; Table 5;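 note: MCF7 was included as a line with little or no EGFR or HER2/neu expression, in contrast to the receptor-overexpressing lines of the panel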
Source text: as §1

B7474 = assay: Inhibition of cancer cell growth as measured by cell number, B7474; assay type: cell-based; conditions: Homo sapiens, 48 h, read-out: IC50 B7474
T47D = assay: Inhibition of cancer cell growth as measured by cell number, T47D; assay type: cell-based; conditions: Homo sapiens, 48 h, read-out: IC50 T47D
LX1 = assay: Inhibition of cancer cell growth as measured by cell number, LX1; assay type: cell-based; conditions: Homo sapiens, LX-1, 48 h, read-out: IC50 LX1
A549 = assay: Inhibition of cancer cell growth as measured by cell number, A549; assay type: cell-based; conditions: Homo sapiens, A549, 48 h, read-out: IC50 A549
LOX = assay: Inhibition of cancer cell growth as measured by cell number, LOX; assay type: cell-based, human; conditions: Homo sapiens, LOX, 48 h, read-out: IC50 LOX, cell number, Sulforhodamine B, 48 hours exposure; Table 6;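 note: LOX cells served as a line with low or absent EGFR and HER2/neu expression, in contrast to receptor-overexpressing lines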
Source text: as §1

A431 [2] = assay: Inhibition of cancer cell growth as measured by cell number, A431; assay type: cell-based, human; conditions: Homo sapiens, A-431, 48 h, read-out: IC50 A431, cell number, Sulforhodamine B, 48 hours exposure; Table 6;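 note: human A431 line, picked because it overexpresses epidermal growth factor receptor (EGFR)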
Source text: as §1

NEC = assay: Inhibition of cancer cell growth as measured by cell number, NEC; assay type: cell-based; conditions: Homo sapiens, 48 h, read-out: IC50 NEC
DU145 = assay: Inhibition of cancer cell growth as measured by cell number, DU145; assay type: cell-based; conditions: Homo sapiens, DU-145, 48 h, read-out: IC50 DU145
PC3 = assay: Inhibition of cancer cell growth as measured by cell number, PC3; assay type: cell-based; conditions: Homo sapiens, PC-3, 48 h, read-out: IC50 PC3
LNCAP = assay: Inhibition of cancer cell growth as measured by cell number, LNCAP; assay type: cell-based; conditions: Homo sapiens, 48 h, read-out: IC50 LNCAP
HL60 = assay: Inhibition of cancer cell growth as measured by cell number, HL60; assay type: cell-based; conditions: Homo sapiens, HL-60, 48 h, read-out: IC50 HL60
CCRF-CFM = assay: Inhibition of cancer cell growth as measured by cell number, CCRF-CFM; assay type: cell-based; conditions: Homo sapiens, 48 h, read-out: IC50 CCRF-CFM
SKBR3 = assay: Inhibition of cancer cell growth as measured by cell number, SKBR3; assay type: cell-based, human; conditions: Homo sapiens, SK-BR-3, 48 h, read-out: IC50 SKBR3, cell number, Sulforhodamine B, 48 hours exposure; Table 7;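 note: SK-BR-3 cells were selected as a line overexpressing HER2/neu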
Source text: as §1

[3] = target: recombinant human MEK 1 (MAPKK) and recombinant human ERK2 (MAPK); assay: Mitogen Activated Protein Kinase (MAPK) assay, two component coupled MEK 1 / ERK2; assay type: biochemical; conditions: separate entries for the same compound = evaluated more than one time;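 note: MEK 1-activated ERK2 phosphorylates MBP or Myc peptide with 33P-ATP, filter capture and scintillation counting, inhibitor preincubated with ERK2 30 min at 0 °C, inhibition relative to uninhibited control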
[4] = target: epidermal growth factor receptor kinase (Homo sapiens, UniProt P00533); assay: biochemical
Chain of epidermal growth factor receptor kinase (P00533 25-1210): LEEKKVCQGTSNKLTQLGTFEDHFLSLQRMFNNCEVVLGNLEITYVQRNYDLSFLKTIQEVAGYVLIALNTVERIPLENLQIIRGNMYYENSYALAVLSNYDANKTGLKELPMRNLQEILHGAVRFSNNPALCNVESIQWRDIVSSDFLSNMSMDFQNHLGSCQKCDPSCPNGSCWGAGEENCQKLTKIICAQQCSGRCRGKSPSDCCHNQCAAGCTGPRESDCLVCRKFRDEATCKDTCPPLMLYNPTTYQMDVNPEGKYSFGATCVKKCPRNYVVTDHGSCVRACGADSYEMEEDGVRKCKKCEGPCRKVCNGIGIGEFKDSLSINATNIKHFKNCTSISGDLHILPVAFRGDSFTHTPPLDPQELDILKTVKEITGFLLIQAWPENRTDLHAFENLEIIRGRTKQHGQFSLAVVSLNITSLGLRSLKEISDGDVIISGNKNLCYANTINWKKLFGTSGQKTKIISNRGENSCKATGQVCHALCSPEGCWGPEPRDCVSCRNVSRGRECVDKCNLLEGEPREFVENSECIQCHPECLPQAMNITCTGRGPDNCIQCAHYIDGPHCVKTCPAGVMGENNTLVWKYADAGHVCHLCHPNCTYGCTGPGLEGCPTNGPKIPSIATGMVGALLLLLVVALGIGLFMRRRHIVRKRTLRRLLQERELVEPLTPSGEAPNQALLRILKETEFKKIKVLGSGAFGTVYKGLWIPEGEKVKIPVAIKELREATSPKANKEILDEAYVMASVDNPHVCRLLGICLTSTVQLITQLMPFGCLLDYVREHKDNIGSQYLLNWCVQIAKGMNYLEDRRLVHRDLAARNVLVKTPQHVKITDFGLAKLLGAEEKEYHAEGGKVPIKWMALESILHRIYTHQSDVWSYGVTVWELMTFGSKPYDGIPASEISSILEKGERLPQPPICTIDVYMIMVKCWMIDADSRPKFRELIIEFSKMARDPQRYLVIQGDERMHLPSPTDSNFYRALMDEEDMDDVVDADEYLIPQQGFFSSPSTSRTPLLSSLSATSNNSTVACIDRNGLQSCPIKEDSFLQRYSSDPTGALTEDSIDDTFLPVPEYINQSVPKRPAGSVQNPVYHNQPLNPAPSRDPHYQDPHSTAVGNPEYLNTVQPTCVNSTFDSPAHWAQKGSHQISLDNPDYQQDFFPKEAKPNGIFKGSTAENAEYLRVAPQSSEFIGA

Question: How did the IC50 (A431 [1]) turn out when `COc1cc2ncc(C#N)c(Nc3cccc(Br)c3)c2cc1N` [Example 7, 6-Amino-4-[(3-bromophenyl)amino] -7-methoxy-3-quinolinecarbonitrile] was run?
Answer: The IC50 was greater than 50 µM.

Question: And the IC50 (NHEK)?
Answer: Its IC50 is 4.5 µM.

Question: And the IC50 (HTB161)?
Answer: The IC50 was 2.12 mg/L (≈ 5.75 µM).

Question: And the IC50 (A27805)?
Answer: Its IC50 is 4.66 mg/L (≈ 12.6 µM).

Question: What about the IC50 (A2780DDP) of the same compound?
Answer: Its IC50 is 4.91 mg/L (≈ 13.3 µM).

Question: What about the IC50 (MIP) of the same compound?
Answer: Its IC50 is 2.39 mg/L (≈ 6.48 µM).

Question: What about the IC50 (SW620) of the same compound?
Answer: The IC50 was 5.84 mg/L (≈ 15.8 µM).

Question: And the IC50 (COLO205)?
Answer: Its IC50 is 4.83 mg/L (≈ 13.1 µM).

Question: What about the IC50 (CX1) of the same compound?
Answer: Its IC50 is 4.88 mg/L (≈ 13.2 µM).

Question: And the IC50 (CACO2)?
Answer: Its IC50 is 2.3 mg/L (≈ 6.22 µM).

Question: And the IC50 (HCT15)?
Answer: Its IC50 is 3.98 mg/L (≈ 10.8 µM).

Question: And the IC50 (LS174T)?
Answer: Its IC50 is 3.23 mg/L (≈ 8.75 µM).

Question: And the IC50 (SW948)?
Answer: Its IC50 is 5.85 mg/L (≈ 15.9 µM).

Question: And the IC50 (CCL228)?
Answer: The IC50 was 6.25 mg/L (≈ 16.9 µM).

Question: What about the IC50 (MCF7) of the same compound?
Answer: Its IC50 is 5.67 mg/L (≈ 15.4 µM).

Question: What about the IC50 (B7474) of the same compound?
Answer: The IC50 was 3.88 mg/L (≈ 10.5 µM).

Question: What about the IC50 (T47D) of the same compound?
Answer: The IC50 was 5.17 mg/L (≈ 14 µM).

Question: And the IC50 (LX1)?
Answer: The IC50 was 6.3 mg/L (≈ 17.1 µM).

Question: And the IC50 (A549)?
Answer: Its IC50 is 5.93 mg/L (≈ 16.1 µM).

Question: What about the IC50 (LOX) of the same compound?
Answer: Its IC50 is 1.45 mg/L (≈ 3.92 µM).

Question: What about the IC50 (A431 [2]) of the same compound?
Answer: Its IC50 is 1.06 mg/L (≈ 2.86 µM).

Question: What about the IC50 (NEC) of the same compound?
Answer: Its IC50 is 5.18 mg/L (≈ 14 µM).

Question: And the IC50 (DU145)?
Answer: Its IC50 is 1.09 mg/L (≈ 2.95 µM).

Question: And the IC50 (PC3)?
Answer: Its IC50 is 7.22 mg/L (≈ 19.6 µM).

Question: And the IC50 (LNCAP)?
Answer: The IC50 was 2.19 mg/L (≈ 5.92 µM).

Question: What about the IC50 (HL60) of the same compound?
Answer: The IC50 was 2.63 mg/L (≈ 7.13 µM).

Question: What about the IC50 (CCRF-CFM) of the same compound?
Answer: Its IC50 is 3.44 mg/L (≈ 9.3 µM).

Question: What about the IC50 (SKBR3) of the same compound?
Answer: The IC50 was 5.6 mg/L (≈ 15.2 µM).

Question: What about the IC50 [3] of the same compound?
Answer: Its IC50 is 25 µM.

Question: Which IC50 (A431 [1]) does the source give for `CC#CC(=O)Nc1cc2c(Nc3cccc(Br)c3)c(C#N)cnc2cc1OC` [Example 8, N-[4-[(3-Bromophenyl)amino]-3-cyano-7-methoxy-6-guinolinyl]-2-butynamide] here?
Answer: Its IC50 is 40 µM.

Question: What about the IC50 (NHEK) of the same compound?
Answer: The IC50 was 0.2 µM.

Question: And the IC50 (HTB161)?
Answer: Its IC50 is 98.8 mg/L (≈ 227 µM).

Question: And the IC50 (A27805)?
Answer: The IC50 was 0.912 mg/L (≈ 2.09 µM).

Question: And the IC50 (A2780DDP)?
Answer: The IC50 was 6.79 mg/L (≈ 15.6 µM).

Question: What about the IC50 (MIP) of the same compound?
Answer: The IC50 was 0.354 mg/L (≈ 0.813 µM).

Question: What about the IC50 (SW620) of the same compound?
Answer: Its IC50 is 2.5 mg/L (≈ 5.75 µM).

Question: And the IC50 (COLO205)?
Answer: Its IC50 is 2.49 mg/L (≈ 5.72 µM).

Question: What about the IC50 (CX1) of the same compound?
Answer: The IC50 was 7.55 mg/L (≈ 17.3 µM).

Question: What about the IC50 (CACO2) of the same compound?
Answer: The IC50 was 2.33 mg/L (≈ 5.35 µM).

Question: And the IC50 (HCT15)?
Answer: Its IC50 is 10.9 mg/L (≈ 25.1 µM).

Question: And the IC50 (LS174T)?
Answer: Its IC50 is 2.03 mg/L (≈ 4.66 µM).

Question: What about the IC50 (SW948) of the same compound?
Answer: Its IC50 is 86.9 mg/L (≈ 200 µM).

Question: What about the IC50 (CCL228) of the same compound?
Answer: Its IC50 is 8.67 mg/L (≈ 19.9 µM).

Question: And the IC50 (MCF7)?
Answer: Its IC50 is 53.2 mg/L (≈ 122 µM).

Question: What about the IC50 (B7474) of the same compound?
Answer: Its IC50 is 55.5 mg/L (≈ 127 µM).

Question: And the IC50 (T47D)?
Answer: Its IC50 is 39.5 mg/L (≈ 90.7 µM).

Question: And the IC50 (LX1)?
Answer: The IC50 was 0.932 mg/L (≈ 2.14 µM).

Question: What about the IC50 (A549) of the same compound?
Answer: Its IC50 is 7.28 mg/L (≈ 16.7 µM).

Question: And the IC50 (LOX)?
Answer: The IC50 was 0.647 mg/L (≈ 1.49 µM).

Question: And the IC50 (A431 [2])?
Answer: The IC50 was 9.59 mg/L (≈ 22 µM).

Question: What about the IC50 (NEC) of the same compound?
Answer: The IC50 was 9.3 mg/L (≈ 21.4 µM).

Question: And the IC50 (DU145)?
Answer: Its IC50 is 6.47 mg/L (≈ 14.9 µM).

Question: And the IC50 (PC3)?
Answer: Its IC50 is 53.4 mg/L (≈ 123 µM).

Question: What about the IC50 (LNCAP) of the same compound?
Answer: The IC50 was 59.4 mg/L (≈ 137 µM).

Question: What about the IC50 (HL60) of the same compound?
Answer: Its IC50 is 18.9 mg/L (≈ 43.5 µM).

Question: What about the IC50 (CCRF-CFM) of the same compound?
Answer: The IC50 was 0.823 mg/L (≈ 1.89 µM).

Question: What about the IC50 (SKBR3) of the same compound?
Answer: The IC50 was 38.3 mg/L (≈ 87.9 µM).

Question: And the IC50 [3]?
Answer: Its IC50 is greater than 100 µM.

Question: What about the IC50 [4] of the same compound?
Answer: The IC50 was 0.15 µM.
